Measurements taken from ChEMBL document CHEMBL5291721, “A preclinical secondary pharmacology resource illuminates target-adverse drug reaction associations of marketed drugs” (Nat Commun, 2023).

Tests used:
[1] = molecular target: T1, Muscarinic acetylcholine receptor M1 (Homo sapiens, UniProt P11229); assay type: functional
T1 sequence (P11229 whole entry): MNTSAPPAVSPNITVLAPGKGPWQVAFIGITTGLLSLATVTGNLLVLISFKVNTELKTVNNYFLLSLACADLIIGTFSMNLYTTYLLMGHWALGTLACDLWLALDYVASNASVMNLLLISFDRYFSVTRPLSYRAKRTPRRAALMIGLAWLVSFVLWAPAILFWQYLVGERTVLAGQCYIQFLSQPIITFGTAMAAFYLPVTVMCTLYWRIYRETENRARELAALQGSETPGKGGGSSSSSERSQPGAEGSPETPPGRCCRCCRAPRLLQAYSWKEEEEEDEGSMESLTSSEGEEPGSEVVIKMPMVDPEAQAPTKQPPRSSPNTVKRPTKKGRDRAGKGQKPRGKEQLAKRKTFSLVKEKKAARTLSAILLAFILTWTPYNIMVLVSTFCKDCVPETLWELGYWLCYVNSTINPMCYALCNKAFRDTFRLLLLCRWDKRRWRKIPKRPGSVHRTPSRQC

[2] = molecular target: T2, Muscarinic acetylcholine receptor M2 (Homo sapiens, UniProt P08172); assay type: functional, cell-based
T2 sequence (P08172 whole entry): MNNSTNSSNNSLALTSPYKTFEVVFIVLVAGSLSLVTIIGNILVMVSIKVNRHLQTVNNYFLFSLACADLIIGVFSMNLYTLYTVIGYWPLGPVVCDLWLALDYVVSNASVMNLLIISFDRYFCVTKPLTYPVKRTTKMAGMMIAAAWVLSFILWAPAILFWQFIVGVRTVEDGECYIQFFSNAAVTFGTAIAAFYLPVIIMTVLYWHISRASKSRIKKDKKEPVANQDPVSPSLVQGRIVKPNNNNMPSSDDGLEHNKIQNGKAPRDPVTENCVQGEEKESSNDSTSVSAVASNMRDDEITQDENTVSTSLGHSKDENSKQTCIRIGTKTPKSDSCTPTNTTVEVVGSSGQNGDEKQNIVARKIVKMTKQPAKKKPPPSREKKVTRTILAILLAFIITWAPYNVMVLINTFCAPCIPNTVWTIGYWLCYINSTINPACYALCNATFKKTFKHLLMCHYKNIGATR

[3] = molecular target: Muscarinic acetylcholine receptor M3 (Homo sapiens, UniProt P20309)
Chain of Muscarinic acetylcholine receptor M3 (P20309 whole entry): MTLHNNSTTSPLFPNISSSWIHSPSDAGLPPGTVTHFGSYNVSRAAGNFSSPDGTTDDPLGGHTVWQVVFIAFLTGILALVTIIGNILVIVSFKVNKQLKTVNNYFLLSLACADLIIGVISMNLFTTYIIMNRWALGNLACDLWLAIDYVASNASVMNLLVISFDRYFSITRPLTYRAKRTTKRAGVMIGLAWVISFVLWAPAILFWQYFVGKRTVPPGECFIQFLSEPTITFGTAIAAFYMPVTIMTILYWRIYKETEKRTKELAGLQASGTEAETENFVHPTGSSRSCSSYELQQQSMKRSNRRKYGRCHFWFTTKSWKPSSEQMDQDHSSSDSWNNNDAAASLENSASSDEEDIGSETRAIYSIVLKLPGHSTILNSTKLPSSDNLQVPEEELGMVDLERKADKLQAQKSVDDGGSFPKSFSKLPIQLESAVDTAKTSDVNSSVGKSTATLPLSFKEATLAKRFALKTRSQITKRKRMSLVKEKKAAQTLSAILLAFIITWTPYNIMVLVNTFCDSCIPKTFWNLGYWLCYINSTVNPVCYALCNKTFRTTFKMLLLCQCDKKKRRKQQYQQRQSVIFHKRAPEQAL

Histamine H1 receptor = Histamine H1 receptor (Homo sapiens, UniProt P35367)
Chain of Histamine H1 receptor (P35367 whole entry): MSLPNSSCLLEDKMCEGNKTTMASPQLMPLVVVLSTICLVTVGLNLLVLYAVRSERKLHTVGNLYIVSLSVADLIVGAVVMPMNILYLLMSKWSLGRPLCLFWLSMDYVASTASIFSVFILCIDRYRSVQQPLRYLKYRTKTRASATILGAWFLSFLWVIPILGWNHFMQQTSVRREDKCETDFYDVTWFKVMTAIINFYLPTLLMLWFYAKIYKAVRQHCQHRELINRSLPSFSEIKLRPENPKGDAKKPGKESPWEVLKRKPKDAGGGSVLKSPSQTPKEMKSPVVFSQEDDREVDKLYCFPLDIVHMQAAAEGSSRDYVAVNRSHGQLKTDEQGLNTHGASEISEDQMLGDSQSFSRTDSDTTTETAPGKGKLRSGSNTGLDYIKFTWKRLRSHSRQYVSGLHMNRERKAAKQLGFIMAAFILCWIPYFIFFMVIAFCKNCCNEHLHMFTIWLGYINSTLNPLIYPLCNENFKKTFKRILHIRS

[4] = molecular target: 5-hydroxytryptamine receptor 2A (Homo sapiens, UniProt P28223); assay type: functional, cell-based
Chain of 5-hydroxytryptamine receptor 2A (P28223 whole entry): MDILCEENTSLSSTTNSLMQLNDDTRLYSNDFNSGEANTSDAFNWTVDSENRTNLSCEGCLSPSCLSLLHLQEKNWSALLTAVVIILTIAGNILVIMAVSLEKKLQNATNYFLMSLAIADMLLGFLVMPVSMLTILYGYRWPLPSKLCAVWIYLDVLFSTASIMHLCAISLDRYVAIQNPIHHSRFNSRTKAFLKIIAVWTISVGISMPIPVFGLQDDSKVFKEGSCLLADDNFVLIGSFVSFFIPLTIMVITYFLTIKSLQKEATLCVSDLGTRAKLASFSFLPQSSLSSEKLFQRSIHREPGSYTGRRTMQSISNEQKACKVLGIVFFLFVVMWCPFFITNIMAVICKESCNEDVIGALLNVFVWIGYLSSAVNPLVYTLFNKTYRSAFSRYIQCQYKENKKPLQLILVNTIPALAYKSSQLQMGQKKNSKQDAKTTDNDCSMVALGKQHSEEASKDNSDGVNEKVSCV

Mu-type opioid receptor [5] = molecular target: T3, Mu-type opioid receptor (Homo sapiens, UniProt P35372); experiment: biochemical; assay type: functional
T3 sequence (P35372 whole entry): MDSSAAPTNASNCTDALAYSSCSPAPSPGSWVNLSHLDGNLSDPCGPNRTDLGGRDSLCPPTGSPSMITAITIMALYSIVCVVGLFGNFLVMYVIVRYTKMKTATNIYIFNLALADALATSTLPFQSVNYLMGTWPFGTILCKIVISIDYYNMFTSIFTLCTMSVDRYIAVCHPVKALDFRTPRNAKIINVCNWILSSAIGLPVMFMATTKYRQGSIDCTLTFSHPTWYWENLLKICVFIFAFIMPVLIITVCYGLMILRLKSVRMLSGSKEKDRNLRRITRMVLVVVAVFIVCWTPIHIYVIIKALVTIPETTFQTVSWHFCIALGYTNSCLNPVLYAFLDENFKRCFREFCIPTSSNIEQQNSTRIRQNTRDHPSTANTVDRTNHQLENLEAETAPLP

Progesterone receptor [6] = molecular target: T4, Progesterone receptor (Homo sapiens, UniProt P06401); assay type: functional
T4 sequence (P06401 whole entry): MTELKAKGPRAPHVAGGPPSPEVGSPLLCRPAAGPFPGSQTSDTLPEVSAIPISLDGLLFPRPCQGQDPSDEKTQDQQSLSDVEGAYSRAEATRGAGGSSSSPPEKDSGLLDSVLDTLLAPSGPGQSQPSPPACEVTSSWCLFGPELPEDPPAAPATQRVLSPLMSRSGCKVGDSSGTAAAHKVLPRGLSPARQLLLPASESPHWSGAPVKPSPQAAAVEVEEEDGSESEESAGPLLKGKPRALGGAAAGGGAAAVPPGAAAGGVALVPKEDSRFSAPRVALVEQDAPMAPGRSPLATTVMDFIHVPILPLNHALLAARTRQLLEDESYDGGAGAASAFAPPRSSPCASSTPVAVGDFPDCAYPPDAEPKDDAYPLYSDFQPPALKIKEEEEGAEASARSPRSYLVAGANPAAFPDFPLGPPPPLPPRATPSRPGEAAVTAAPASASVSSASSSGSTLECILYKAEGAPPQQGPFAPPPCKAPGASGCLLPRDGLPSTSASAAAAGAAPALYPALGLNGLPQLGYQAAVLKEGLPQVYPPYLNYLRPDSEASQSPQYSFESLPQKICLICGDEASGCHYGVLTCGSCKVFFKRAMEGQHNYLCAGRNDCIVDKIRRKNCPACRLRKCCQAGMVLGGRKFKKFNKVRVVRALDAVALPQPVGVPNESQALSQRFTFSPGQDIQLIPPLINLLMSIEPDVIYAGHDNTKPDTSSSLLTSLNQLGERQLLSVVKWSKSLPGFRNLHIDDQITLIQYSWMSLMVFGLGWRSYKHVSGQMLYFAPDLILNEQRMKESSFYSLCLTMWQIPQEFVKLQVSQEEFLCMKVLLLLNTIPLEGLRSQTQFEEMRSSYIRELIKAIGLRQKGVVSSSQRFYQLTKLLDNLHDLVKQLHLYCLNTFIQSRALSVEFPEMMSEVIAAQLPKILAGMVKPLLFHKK

Progesterone receptor [7] = molecular target: T4, Progesterone receptor; assay type: functional; remark: listed apart in the source
[8] = molecular target: T5, Alpha-1A adrenergic receptor (Homo sapiens, UniProt P35348)
T5 sequence (P35348 whole entry): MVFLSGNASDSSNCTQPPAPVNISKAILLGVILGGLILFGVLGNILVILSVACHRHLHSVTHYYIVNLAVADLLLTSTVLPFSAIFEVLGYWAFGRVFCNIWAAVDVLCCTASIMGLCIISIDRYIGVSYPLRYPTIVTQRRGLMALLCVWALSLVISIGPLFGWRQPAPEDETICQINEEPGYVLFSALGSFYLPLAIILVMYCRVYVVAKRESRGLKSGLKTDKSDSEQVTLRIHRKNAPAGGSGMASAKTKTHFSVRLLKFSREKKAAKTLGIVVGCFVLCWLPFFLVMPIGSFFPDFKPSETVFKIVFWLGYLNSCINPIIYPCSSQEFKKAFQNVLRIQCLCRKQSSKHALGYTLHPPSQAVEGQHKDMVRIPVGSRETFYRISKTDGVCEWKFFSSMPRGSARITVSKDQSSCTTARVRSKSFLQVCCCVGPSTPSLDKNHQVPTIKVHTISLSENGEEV

Melanocortin receptor 4 = Melanocortin receptor 4 (Homo sapiens, UniProt P32245)
Chain of Melanocortin receptor 4 (P32245 whole entry): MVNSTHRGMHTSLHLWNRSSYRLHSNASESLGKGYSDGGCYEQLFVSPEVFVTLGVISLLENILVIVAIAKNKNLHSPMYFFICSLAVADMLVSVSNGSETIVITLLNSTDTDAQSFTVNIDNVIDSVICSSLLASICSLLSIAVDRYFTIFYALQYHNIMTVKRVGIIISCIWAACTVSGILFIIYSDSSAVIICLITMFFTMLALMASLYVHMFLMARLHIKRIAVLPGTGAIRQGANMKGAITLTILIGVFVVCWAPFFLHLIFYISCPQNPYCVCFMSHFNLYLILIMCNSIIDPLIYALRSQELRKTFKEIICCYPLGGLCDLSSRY

Mu-type opioid receptor [9] = molecular target: T3, Mu-type opioid receptor
Further: assay procedure not described here.

Row | Compound | AC50 [1] [µM] | AC50 [2] [µM] | AC50 [3] [µM] | AC50 (Histamine H1 receptor) [µM] | AC50 [4] [µM] | AC50 (Mu-type opioid receptor [5]) [µM] | AC50 (Progesterone receptor [6]) [µM] | AC50 (Progesterone receptor [7]) [µM] | AC50 [8] [µM] | AC50 (Melanocortin receptor 4) [µM] | AC50 (Mu-type opioid receptor [9]) [µM]
1 | CO/N=C(\C(=O)N[C@@H]1C(=O)N2C(C(=O)[O-])=C(C[n+]3cccc4c3CCC4)CS[C@H]12)c1csc(N)n1 [CEFPIROME] | > 30 | > 30 | > 30 | > 30 | > 30 | > 30 | – | – | – | – | –
2 | CC(C)=CCOc1ccc(/C=C/C(=O)c2ccc(OCC=C(C)C)cc2OCC(=O)O)cc1 [SOFALCONE] | > 30 | > 30 | > 30 | > 30 | > 30 | > 30 | > 30 | 9.4 | – | – | –
3 | CCn1cc(C(=O)O)c(=O)c2cc(F)c(N3CCNCC3)nc21 [ENOXACIN] | – | > 10 | – | – | – | – | – | – | > 10 | > 30 | > 10
4 | Oc1c(I)cc(Cl)c2cccnc12 [CLIOQUINOL] | > 30 | – | > 30 | > 30 | > 30 | > 30 | – | – | – | – | –
5 | CN(C)c1cc(NC(=O)CNC(C)(C)C)c(O)c2c1C[C@H]1C[C@H]3[C@H](N(C)C)C(O)=C(C(N)=O)C(=O)[C@@]3(O)C(O)=C1C2=O [TIGECYCLINE] | 27 | > 30 | > 30 | > 30 | > 30 | > 30 | > 30 | > 30 | > 30 | > 30 | –
6 | COCCCOc1ccnc(C[S+]([O-])c2nc3ccccc3[nH]2)c1C (stereo unspecified) [RABEPRAZOLE] | – | > 10 | – | – | – | – | – | – | > 10 | > 30 | > 30
7 | C[C@]1(COc2ccc(N3CCC(Oc4ccc(OC(F)(F)F)cc4)CC3)cc2)Cn2cc([N+](=O)[O-])nc2O1 | > 10 | – | – | > 10 | – | – | – | – | – | > 30 | > 10
8 | COc1ccc2c(c1)[C@]13CCCC[C@@H]1[C@H](C2)N(C)CC3 [DEXTROMETHORPHAN] | – | > 10 | – | – | – | > 30 | – | – | 3.58 | > 30 | 2.7
9 | CC[C@H]1OC(=O)[C@H](C)[C@@H](O[C@H]2C[C@@](C)(OC)[C@@H](O)[C@H](C)O2)[C@H](C)[C@@H](O[C@@H]2O[C@H](C)C[C@H](N(C)C)[C@H]2O)[C@](C)(OC)C[C@@H](C)C(=O)[C@H](C)[C@@H](O)[C@]1(C)O [CLARITHROMYCIN] | – | > 30 | – | – | – | > 30 | > 30 | > 30 | – | – | –
10 | O=C(O)CSCC(=O)NC1CCSC1=O (stereo unspecified) [ERDOSTEINE] | > 30 | > 30 | > 30 | > 30 | > 30 | > 30 | > 30 | > 30 | – | – | –
11 | CNC(=O)Oc1ccc2c(c1)[C@]1(C)CCN(C)[C@@H]1N2C [PHYSOSTIGMINE] | – | > 30 | – | – | – | > 30 | > 30 | > 30 | – | – | –
12 | C[C@@H]1CCC[C@H](C)N1NC(=O)c1ccc(Cl)c(S(N)(=O)=O)c1 [CLOPAMIDE] | > 30 | > 30 | > 30 | > 30 | > 30 | > 30 | > 30 | > 30 | – | – | –
13 | COc1cccc(N(C)C(=S)Oc2ccc3c(c2)CCCC3)n1 [LIRANAFTATE] | > 30 | > 30 | > 30 | > 30 | 7.4 | > 30 | > 30 | > 30 | – | – | –
14 | O=C(CCCN1CCC2(CC1)C(=O)NCN2c1ccccc1)c1ccc(F)cc1 [SPIPERONE] | > 30 | – | > 30 | 1.4 | – | – | > 30 | > 30 | 0.31 | – | –
15 | NS(=O)(=O)c1cc(C(=O)O)cc(N2CCCC2)c1Oc1ccccc1 [PIRETANIDE] | > 30 | > 30 | > 30 | > 30 | > 30 | > 30 | > 30 | > 30 | – | – | –
16 | O=C(Nc1nc(-c2cc(Cl)cs2)c(N2CCN(C3CCCCC3)CC2)s1)c1cnc(N2CCC(C(=O)O)CC2)c(Cl)c1 [AVATROMBOPAG] | > 10 | – | > 10 | > 10 | – | – | – | – | – | > 10 | > 10
17 | C#C[C@]1(O)CC[C@H]2[C@@H]3CCc4cc(OC)ccc4[C@H]3CC[C@@]21C [MESTRANOL] | – | > 10 | – | – | – | > 30 | 0.096 | – | > 30 | > 10 | > 30
18 | O=C(O)c1cc(O)c2c3nc4ccccc4oc-3cc(=O)c2n1 [PIRENOXINE] | 6.7 | > 30 | 2.2 | 11 | > 30 | > 30 | > 30 | > 30 | – | – | –
19 | CNCCCC1c2ccccc2C=Cc2ccccc21 [PROTRIPTYLINE] | – | 1.8 | – | – | – | – | > 10 | > 10 | 0.461 | > 10 | > 10
20 | CO[C@@]1(NC(=O)CSCC#N)C(=O)N2C(C(=O)O)=C(CSc3nnnn3C)CS[C@@H]21 [CEFMETAZOLE] | – | > 30 | – | – | – | > 30 | – | – | – | – | –
21 | N=C(N)c1ccc2cc(OC(=O)c3ccc(N=C(N)N)cc3)ccc2c1 [NAFAMOSTAT] | 8.7 | 12 | 15 | > 30 | > 30 | > 30 | > 30 | – | – | – | –
22 | CCSc1ccc2c(c1)N(CCCN1CCN(C)CC1)c1ccccc1S2 [THIETHYLPERAZINE] | 16 | > 10 | – | 0.17 | 1.6 | – | > 30 | > 30 | – | – | –
23 | C[C@H]1C[C@H]2[C@@H]3CCC4=CC(=O)C=C[C@]4(C)[C@@]3(Cl)[C@@H](O)C[C@]2(C)[C@@]1(O)C(=O)CO [BECLOMETHASONE] | – | – | – | – | – | – | – | – | – | > 30 | > 30
24 | CN(C)C(=O)Oc1cc(OC(=O)N(C)C)cc(C(O)CNC(C)(C)C)c1 (stereo unspecified) [BAMBUTEROL] | – | – | – | – | – | – | > 30 | > 30 | – | – | –
